Data published in PubChem BioAssay (NCI).
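Dose response: 5 concentrations. Exposure: 48 h. Format: 96-well plates. Endpoint: linear interpolation; highest concentration if not reached. Abbreviation: GI50, concentration required for 50% inhibition of growth. TGI: concentration producing complete growth inhibition.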

Legend:
Experiment in all cases: inhibition of tumour cell growth, NCI panel, 48 h; in the data active means GI50 below about 0.43 µM; inactive means the rest
[1] = tested on: OVCAR-5 ovarian
[2] = tested on: NCI-H226 lung
[3] = tested on: NCI/ADR-RES ovarian
[4] = tested on: CAKI-1 renal
[5] = tested on: TK-10 renal
[6] = tested on: M14 melanoma
[7] = tested on: MDA-N
[8] = tested on: RXF 393 renal
[9] = tested on: U251 CNS

Cn1c(=O)c2c(nc3n(CC(O)CCl)c(=O)ccn23)n(C)c1=O (stereo not given)
66.2 µM: TGI [4]
> 100 µM: TGI [1] | TGI [2] | TGI [3] | TGI [5] | TGI [6] | TGI [7] | TGI [8] | TGI [9]

N#CCCN(CCC#N)c1ccc(/C=C2\N=C(c3ccccc3)N(c3ccc(F)cc3)C2=O)cc1
> 100 µM: TGI [1] | TGI [2] | TGI [3] | TGI [4] | TGI [5] | TGI [6] | TGI [7] | TGI [8] | TGI [9]

COc1cc2c(c3c1c(=O)c1ccccc1n3C)C=CC1(CCCC1)O2
37.1 µM: TGI [2]
27 µM: TGI [1]
29.1 µM: TGI [6]
6.33 µM: TGI [4]
29.3 µM: TGI [7]
31.9 µM: TGI [9]
33.7 µM: TGI [5]
> 100 µM: TGI [3]
22.8 µM: TGI [8]

C=CCSC1=N/C(=C\c2ccc(Cl)cc2)C(=O)N1CC=C
> 100 µM: TGI [1] | TGI [3] | TGI [4] | TGI [5] | TGI [6] | TGI [7]
45.3 µM: TGI [8]
64.6 µM: TGI [9]

O=C1[C@H](O)[C@@H]2C(O)O[C@H]3[C@@H]2N1C[C@H]3[Si](c1ccccc1)(c1ccccc1)c1ccccc1 (stereo not given in full)
> 100 µM: TGI [1] | TGI [2] | TGI [3] | TGI [4] | TGI [5] | TGI [6] | TGI [8] | TGI [9]

COC(=O)[C@H]1C=NN[C@@H]1C(=O)N1[C@H]2CC3CC[C@@]2(CS1(=O)=O)C3(C)C
> 100 µM: TGI [1] | TGI [2] | TGI [3] | TGI [4] | TGI [5] | TGI [6] | TGI [9]

O=c1[nH]c2nc3ccccc3c(=O)n2/c1=C/c1ccc(Cl)cc1
59.5 µM: TGI [7]
> 100 µM: TGI [1] | TGI [3] | TGI [4] | TGI [5] | TGI [6] | TGI [8] | TGI [9]

CCN(CCCOc1ccccc1)CCN(CC)CCCOc1ccccc1
34.6 µM: TGI [6]
46.8 µM: TGI [2] | TGI [3]
34 µM: TGI [4]
38.9 µM: TGI [1]
38.5 µM: TGI [8]
27.1 µM: TGI [5]
27.5 µM: TGI [9]

N=C1C(=N)c2ccccc2-c2ccccc21.[Cl-].[Ru+2].c1ccc(-c2ccccn2)nc1.c1ccc(-c2ccccn2)nc1
> 100 µM: TGI [1] | TGI [5] | TGI [6] | TGI [8] | TGI [9]

Nc1n(CC(=O)c2ccccc2)nc2sc(-c3ccccc3)n[n+]12
34.2 µM: TGI [9]
> 100 µM: TGI [1] | TGI [3] | TGI [5] | TGI [6]
25.1 µM: TGI [8]
91.7 µM: TGI [4]
52.2 µM: TGI [2]

O=C(Nc1ccc(N2C(=O)CSC2c2ccccc2O)cc1)c1ccc(N2C(=O)CSC2c2ccccc2O)cc1 (stereo not given)
61.3 µM: TGI [6]
> 100 µM: TGI [1] | TGI [3] | TGI [4] | TGI [5] | TGI [7] | TGI [8] | TGI [9]

CC(=O)NC1C(OCc2ccccc2)OC(CO)C(O)C1OCC(=O)N1CCCC1C(=O)N[C@@H](CCC(=O)NCCCCNc1c2ccccc2nc2cccc([N+](=O)[O-])c12)C(N)=O (stereo not given in full)
48.9 µM: TGI [9]
40.5 µM: TGI [6]
> 100 µM: TGI [2] | TGI [3] | TGI [4] | TGI [5]
88.5 µM: TGI [1]
30.6 µM: TGI [7]

CCNCCNC(=O)c1ccc(I)cc1
> 100 µM: TGI [1] | TGI [2] | TGI [3] | TGI [4] | TGI [5] | TGI [6] | TGI [8] | TGI [9]

Cc1ccc2c(c1)-c1nc(N)c(C#N)c(-c3ccc(Cl)cc3)c1CCS2(=O)=O
> 100 µM: TGI [2] | TGI [3] | TGI [4] | TGI [5] | TGI [7] | TGI [9]

Cc1ccc(C(=N)c2ccccc2Cc2cccc3ccccc23)c2ccccc12
> 100 µM: TGI [1] | TGI [2] | TGI [3] | TGI [4] | TGI [5] | TGI [6] | TGI [8] | TGI [9]

Cn1c(=O)c2[nH]c(N/N=N/c3nncs3)nc2n(C)c1=O
> 100 µM: TGI [1] | TGI [3] | TGI [4] | TGI [5] | TGI [6] | TGI [8] | TGI [9]

C[C@H](c1ccccc1)N1C(=O)[C@@H](O)[C@H]1[C@H](CO)OCc1ccccc1
> 100 µM: TGI [1] | TGI [2] | TGI [3] | TGI [5] | TGI [6] | TGI [7] | TGI [9]

C[C@@]1(O)C2CC3CC1(c1ccccc1)CC(/C3=N/O)/C2=N\O (stereo not given in full)
> 100 µM: TGI [1] | TGI [2] | TGI [3] | TGI [4] | TGI [6] | TGI [8] | TGI [9]

CN1CCC(CNc2cc(C3(C(=O)Nc4cc(C(=O)Nc5ccc(Cl)c(C(F)(F)F)c5)ccc4F)CC3)ncn2)CC1
11.4 µM: TGI [1]
36.6 µM: TGI [3]
36.1 µM: TGI [2]
12.8 µM: TGI [5]
3.62 µM: TGI [9]
inactive: GI50 [1] 3.28 µM | GI50 [2] 13.6 µM | GI50 [3] 5.46 µM | GI50 [5] 3.89 µM | GI50 [9] 1.63 µM

O=C(Nc1ccccc1)N(C1=NCC(CI)S1)c1ccc(F)c(F)c1 (stereo not given)
96.3 µM: TGI [7]
> 100 µM: TGI [1] | TGI [3] | TGI [4] | TGI [5] | TGI [9]

CCn1nc(C)c2c1C(=O)NCC(=O)N2
> 100 µM: TGI [1] | TGI [4] | TGI [5] | TGI [6] | TGI [7] | TGI [8] | TGI [9]

Cc1ccc(S(=O)(=O)NC(=O)Nc2nnc(S(N)(=O)=O)s2)cc1
> 100 µM: TGI [1] | TGI [2] | TGI [3] | TGI [4] | TGI [5] | TGI [6] | TGI [8] | TGI [9]

O=c1[nH]c(Nc2ccccc2)nc2c1ncn2CC(O)CSCCO (stereo not given)
> 100 µM: TGI [1] | TGI [2] | TGI [3] | TGI [4] | TGI [5] | TGI [6] | TGI [7] | TGI [9]

CCO/C(=N/S(=O)(=O)C(F)(F)F)N(C(C)C)C(C)C
> 100 µM: TGI [1] | TGI [3] | TGI [4] | TGI [5] | TGI [6] | TGI [7] | TGI [8] | TGI [9]

C=CCC1(C#N)C(=S)NC2=C(C(=O)CC(C)(C)C2)C1c1ccccc1 (stereo not given)
> 100 µM: TGI [1] | TGI [2] | TGI [3] | TGI [4] | TGI [6] | TGI [7] | TGI [8] | TGI [9]

O=C(/C=C(/C=C/c1ccc2[nH]ccc2c1)OB(F)F)/C=C/c1ccc2[nH]ccc2c1
10.1 µM: TGI [4]
> 100 µM: TGI [1] | TGI [3] | TGI [5]
inactive: GI50 [1] 2.75 µM | GI50 [3] 2.7 µM | GI50 [4] 2.56 µM | GI50 [5] 4.78 µM | GI50 [8] 1.56 µM
3.63 µM: TGI [8]

Oc1cc(Cc2ccccc2)c(Cc2ccccc2)cc1O
> 10 µM: TGI [1] | TGI [2] | TGI [3] | TGI [4] | TGI [6] | TGI [8] | TGI [9]
3.04 µM: TGI [7]

NC(=O)CNC(=O)[C@@H]1CC(OCCC(=O)O)CN1C(=O)C1CCCN1C(=O)OCc1ccccc1 (stereo not given in full)
> 100 µM: TGI [1] | TGI [2] | TGI [3] | TGI [5] | TGI [6] | TGI [7] | TGI [8] | TGI [9]

O=C(Nc1ccccc1F)c1cc2ccc(O)cc2oc1=Nc1cccc(F)c1
40.6 µM: TGI [4]
38.6 µM: TGI [6]
43 µM: TGI [3]
29.8 µM: TGI [9]
71 µM: TGI [1]
43.3 µM: TGI [7]

COC1CC(N)(c2ccccc2)C(O)C(C)O1 (stereo not given)
> 100 µM: TGI [1] | TGI [2] | TGI [3] | TGI [4] | TGI [6] | TGI [7] | TGI [8] | TGI [9]

N#CN1C2CCC1CC(=O)C2
> 100 µM: TGI [1] | TGI [3] | TGI [4] | TGI [5] | TGI [6] | TGI [7] | TGI [9]

Cc1cc(C)nc(NS(=O)(=O)c2ccc(NC(=O)c3c4ccccc4nc4ccccc34)cc2)n1
> 100 µM: TGI [1] | TGI [2] | TGI [3] | TGI [4] | TGI [5] | TGI [6] | TGI [7] | TGI [9]

CC(C)(C)c1ccc(OCCOc2ccc(C(C)(C)C)cc2N)c(N)c1
> 100 µM: TGI [1] | TGI [2] | TGI [3] | TGI [4] | TGI [5] | TGI [6] | TGI [8] | TGI [9]

c1ncn(C23C4C5C6C4C2C6C53)n1 (stereo not given)
> 100 µM: TGI [1] | TGI [2] | TGI [3] | TGI [5] | TGI [7] | TGI [9]

O=S1(=O)c2ccccc2Oc2ccc(C(/C=N/O)=N/O)cc21
53.9 µM: TGI [3]
42.2 µM: TGI [4]
> 100 µM: TGI [1] | TGI [2] | TGI [6] | TGI [9]
63.6 µM: TGI [8]
30.8 µM: TGI [5]

COc1cc2c(c(O)c1O)C(=O)C1CCC(=O)N1C2c1cccc2ccccc12 (stereo not given)
> 50 µM: TGI [1] | TGI [2] | TGI [3] | TGI [6] | TGI [7] | TGI [8] | TGI [9]

[N-]=[N+]=Nc1c(Cc2ccccc2)c(Cl)nc2ccccc12
53 µM: TGI [5]
49.4 µM: TGI [6]
> 100 µM: TGI [1] | TGI [3] | TGI [7]
39.6 µM: TGI [8]
92.3 µM: TGI [4]
59.7 µM: TGI [2]
